Counter-ions that a name gives are not always drawn. Like-named read-outs stand apart in the source and are kept apart here.
Key:
MiaPaCa-2 cells [1] = experiment: MTT cytotoxicity assay, MiaPaCa-2; assay type: cell-based; details: MTT assay; for IC50: Homo sapiens, Mean ± SD, three independent experiments; for cytotoxicity in presence of NAC: NAC 5 mM (FIG. 3C)
Procedure: (§1) MiaPaCa-2, Panc-1 and BxPC-3 pancreatic cancer cell lines were obtained from the ATCC. Normal pancreatic cells HPDE and HPNE were kindly provided (Translational Oncology Program, University of […], Ann Arbor, Mich.). Gemcitabine resistant cell line MiaPaCa-2-GR (gemcitabine resistant) was kindly provided (Department of Pathology, Wayne State University, Detroit, Mich.). All cell lines were cultured as monolayer and maintained in RPMI1640 supplemented with 10% fetal bovine serum (FBS) in a humidified atmosphere with 5% CO2 at 37° C. MiaPaCa-2-GR culture was supplemented with 200 nM gemcitabine.
(§2) Cytotoxicity of compounds was evaluated with 3-(4,5-dimethylthiazol-2-yl)-2,5-diphenyltetrazolium bromide (MTT) assay. Cells were placed in 96-well plate at 3000-8000 cells/well. After overnight attachment, compounds were added to the wells at sequential dilutions (30 nM-10 μM for most cell lines). After 72 h treatment, MTT was added into the media to a final concentration of 300 μg/mL. Cells were incubated for 3 h at 37° C., and the insoluble formazan converted by viable cells were dissolved in 150 μL of DMSO. Absorbance at 570 nm was read by microplate reader (Molecular devices, Sunnyvale, Calif.), and inhibition of cell proliferation was calculated using the following formula: Inhibition of cell proliferation (%)=(1−ODtreatment/ODcontrol)×100%

Panc-1 cells = experiment: MTT cytotoxicity assay, Panc-1; assay type: cell-based; details: Homo sapiens, three independent experiments
Procedure: as §1, §2

BxPC-3 cells = experiment: MTT cytotoxicity assay, BxPC-3; assay type: cell-based; details: Homo sapiens, three independent experiments
Procedure: as §1, §2

MiaPaCa-2 xenograft = MiaPaCa-2 xenograft studies; assay type: in vivo, NOD/SCID mice; details: QD325 5 mg/kg five times a week; gemcitabine 15 mg/kg once a week; control 1503±189 mm^3
Procedure: MiaPaCa-2 cells (2.0×10^6) in a 100 μL suspension of RPMI1640 was injected subcutaneously into dorsal flank of 6-week NOD/SCID mice. Tumor size was monitored twice a week through caliper measurement using the following equation: V=d^2×D/2, where d represents width and D represents length of the tumor. In study 1, mice were randomly grouped (n=5 per group) when average tumor size reached 65 mm^3. Daily treatment was given at five days on two days off cycles. QD325 was given at 5 mg/kg in 100 μL vehicle (5% DMSO, 60% Propylene glycol, 35% Saline) by intraperitoneal injection. […] Unpaired t test was performed for data analysis and p<0.05 was considered significant. […] Procedures for study 2 with gemcitabine treatment are detailed in supplemental information.
On necropsy, tumors, hearts, kidneys, livers, lungs, spleens and pancreases were collected, fixed in 10% neutral buffered formalin, embedded in paraffin, and sectioned. Sections ([…]) were stained with hematoxylin and eosin to facilitate histologic examination. For Ki67 expression level, immunohistochemistry staining was performed on sections with Ki67 antibody. Embedding, sectioning and staining of samples were performed by ULAM pathology core for animal research at the University of Michigan. Representative images were taken on Olympus IX83 microscope with 20× magnification.

pancreatic cancer = details: cited from earlier work
MiaPaCa-2 cells [2] = experiment: ROS detection assay (H2DCFDA probe); assay type: cell-based; details: for ROS induction after NAC pretreatment: NAC 5 mM for 30 min pretreatment (FIG. 3B); for ROS induction compared with lead compound QD232: MiaPaCa-2, 24 h treatment, 10 μM (FIG. 1C)
Procedure: To quantify ROS induction by redox modulators, a high throughput ROS assay in 384-well plates using H2DCFDA as the ROS detection probe was developed (FIG. 1A).
Cells were detached by 0.05% trypsin-EDTA, neutralized, centrifuged (1200 rpm, 5 min) and resuspended in cell culture media. Suspension were then treated with 20 μM cell permeable H2DCFDA for 30 min at 37° C. Cells were then centrifuged (1200 rpm, 5 min) and washed with cell culture media to remove excess probe. After washing, cells were placed in black-wall 384-well plate at 20,000 cells/well, incubated for 30 min and treated by compounds at designated conditions. Fluorescent signal were then read at 493 nm/523 nm on BioTek H1 plate reader for ROS detection.

[3] = test system: mtDNA content in MiaPaCa-2 cells; experiment: Measurement of mtDNA content by qPCR; assay type: cell-based; details: MiaPaCa-2, 6 h; 12S rRNA vs genomic 18S rRNA (FIG. 11B)
Procedure: To assess mtDNA content, genomic DNA was isolated with QIAamp® DNA mini kit (Qiagen, Germantown, Md.) from MiaPaCa-2 cells. The mtDNA content was evaluated by co-amplifying a DNA fragment encoding mitochondrial 12S rRNA (forward primer: 5′-[…]-3′; reverse primer: 5′-TGCGCTTACTTTGTAG CCTTCAT-3′) and a DNA fragment encoding the nuclear 18S rRNA (forward primer: 5′-CCCTGCC CTTTGTACACACC-3′; reverse primer: 5′-GATCCGAGGGCCTCACTA-3′). (Vadrot et al., 2012) Real-time qPCR was performed on Viia7 cycler (Applied Biosystems). Amplifications were monitored and analyzed by measuring the intercalation of the fluorescent dye from Fast SYBR® Green Master Mix (Applied Biosystems). Relative mtDNA contents were calculated using 18S rRNA as gene reference.

MiaPaCa-2 cells [4] = experiment: Bru-seq analysis for nascent RNA synthesis; assay type: cell-based; details: Bru-seq
Excerpt: A bromouridine labeled RNA sequencing (Bru-seq) technique was used to better characterize molecular mechanisms of these novel agents. Bru-seq is able to capture real-time synthesis of the nascent RNA, so as to provide information on global gene transcription without interference by RNA stability or biased gene selection (Paulsen et al., 2014, Paulsen et al., 2013). […] Profiling of all genes with >1.5-fold change in expression upon treatment of QD232 or QD325 identified NRF2-mediated oxidative stress response and unfolded protein response (UPR) as key pathways implicated in drug action (FIG. 8A).
Bru-seq analysis was performed as previously reported (Paulsen et al., 2014). Briefly, 4×10^6 MiaPaCa-2 cells were placed in 10 cm dishes on Day 1. On Day 2, cells were treated with DMSO, QD232 or QD325 for 4 h. Bromouridine was added into the media to label newly synthesized nascent RNA in the last 30 min of treatment to a final concentration of 2 mM. Cells were then collected in TRIZOL and total RNA was isolated. Bromouridine containing RNA population was further isolated and sent for sequencing. Sequencing reads were mapped to the HG19 reference genome. Pre-ranked gene lists were generated for each treatment through ranking genes by fold changes in gene synthesis levels compared with control, and analyzed with GSEA (Broad Institute, MA) (Subramanian et al., 2005, Mootha et al., 2003)

[5] = MIA PaCa-2, 72 h, Table 1, 72 h
[6] = PANC-1, 72 h, Table 1, 72 h, Mean ± SD
[7] = BXPC-3, 72 h, Table 1, 72 h, Mean ± SD
[8] = metastatic pancreatic cancer, gemcitabine group vs FOLFIRINOX group (Conroy et al., 2011)
[9] = MIA PaCa-2, Table 2, read-out: IC 50 MiaPaCa-2
[10] = PANC-1, Table 2, Mean ± SD, read-out: IC 50 Panc-1
[11] = BXPC-3, Table 2, Mean ± SD, read-out: IC 50 BxPC-3

| melting point [°C] | Molecule | IC50 (MiaPaCa-2 cells [1]; [5]) [nM] | IC50 (Panc-1 cells; [6]) [nM] | IC50 (BxPC-3 cells; [7]) [nM] | IC50 (MiaPaCa-2 cells [1]; [9]) [nM] | IC50 (Panc-1 cells; [10]) [nM] | IC50 (BxPC-3 cells; [11]) [nM] | also measured |
| --- | --- | --- | --- | --- | --- | --- | --- | --- |
| 161 to 162 | COc1cc(NC2=CC(=O)c3ncncc3C2=O)cc(OC)c1OC [QD326, 6-((3,4,5-trimethoxyphenyl)amino)quinazoline-5,8-dione] | 1500 ± 100 | 800 ± 100 | 1600 ± 300 | 1500 ± 100 | 800 ± 100 | 1600 ± 300 | cytotoxicity in presence of NAC (MiaPaCa-2 cells [1]; 72 h): decreased cytotoxicity; ROS induction compared with lead compound QD232 (MiaPaCa-2 cells [2]): significantly higher ROS induction than the lead compound QD232; accumulation of ROS (MiaPaCa-2 cells [2]; MiaPaCa-2, 10, 3.3 or 1.1 μM (FIG. 3A)): time- and dose-dependent accumulation of ROS; ROS accumulation at 10 and 3.3 μM (MiaPaCa-2 cells [2]; MiaPaCa-2, 10 and 3.3 μM): rapid and high ROS accumulation; ROS induction after NAC pretreatment (MiaPaCa-2 cells [2]; MiaPaCa-2): inhibited |
| 232 | CCc1ccc(-c2ccc(NC3=CC(=O)c4ncncc4C3=O)cc2)cc1 [QD335, 6-((4′-ethyl-[1,1′-biphenyl]-4-yl)amino)quinazoline-5,8-dione] | 2000 ± 100 | 1200 ± 100 | 3100 ± 700 | 2000 ± 100 | 1200 ± 100 | 3100 ± 700 | ROS induction compared with lead compound QD232 (MiaPaCa-2 cells [2]): significantly higher ROS induction than the lead compound QD232 |
| 203 | O=C1C(NCc2ccc(F)cc2)=CC(=O)c2ncncc21 [QD356, 6-((4-fluorobenzyl)amino)quinazoline-5,8-dione] | 1700 ± 200 | 1000 ± 100 | 1400 ± 200 | 1700 ± 200 | 1000 ± 100 | 1400 ± 200 | – |
| 223 | Nc1cccc(C(=O)NCCC[P+](c2ccccc2)(c2ccccc2)c2ccccc2)c1.[Br-] [QD358, (3-(3-aminobenzamido)propyl)triphenylphosphonium bromide] | – | > 30000 | – | > 30000 | > 30000 | > 30000 | – |

Continued, molecule first:

| Molecule | melting point [°C] | IC50 (MiaPaCa-2 cells [1]; [5]) [nM] | IC50 (Panc-1 cells; [6]) [nM] | IC50 (BxPC-3 cells; [7]) [nM] | IC50 (MiaPaCa-2 cells [1]; [9]) [nM] | IC50 (Panc-1 cells; [10]) [nM] | IC50 (BxPC-3 cells; [11]) [nM] | also measured |
| --- | --- | --- | --- | --- | --- | --- | --- | --- |
| Nc1ccn([C@@H]2O[C@H](CO)[C@@H](O)C2(F)F)c(=O)n1 [Gemcitabine, 2′-deoxy-2′, 2′-difluorocytidine monohydrochloride (b-isomer), reference compound] | – | 110 ± 70 | 200 ± 100 | 50 ± 20 | – | – | – | average tumor size at the end of the 48-day treatment period (MiaPaCa-2 xenograft): 387±74 mm^3; median overall survival (pancreatic cancer; [8]): 6.8 months; median overall survival (pancreatic cancer; pancreatic cancer patients, addition of nab-paclitaxel to gemcitabine (Von Hoff et al., 2013)): 6.7 months |
| OO [H2O2, reference compound] | – | – | – | – | – | – | – | cytotoxicity in presence of NAC (MiaPaCa-2 cells [1]; 72 h): decreased cytotoxicity; ROS induction after NAC pretreatment (MiaPaCa-2 cells [2]; MiaPaCa-2): blocked; mtDNA content 6 hours after treatment [3]: small but significant decrease in mtDNA content |
| CC[C@@]1(O)C(=O)OCc2c1cc1n(c2=O)Cc2cc3ccccc3nc2-1 [camptothecin, reference compound] | – | – | – | – | – | – | – | transcription of mtDNA from mitochondrial promoters HSP2 and LSP on D-loop (MiaPaCa-2 cells [4]): no such effect was observed |
| FOLFIRINOX | – | – | – | – | – | – | – | median overall survival (pancreatic cancer; [8]): 11.1 months |
